Reference: patent US20250304916A1, “METHODS AND COMPOSITIONS FOR GENERATING VASCULAR LEPTOMENINGEAL CELLS” (Trailhead Biosystems Inc., priority 2024, published 2025)
Where “and” joins values, the source holds several entries; their conditions need not be identical. Identical values can stand only once.

Columns and labels:
Format in all cases: cell-based, human
PDGFRA expression = experiment: HD-DoE 8-factor modeling experiment (stage 3), model optimized for maximum expression of PDGFRA; settings: FIG. 2; for factor contribution, negative impact on PDGFRA expression: model optimized for maximum expression of PDGFRA; for factor contribution, positive impact on PDGFRA expression: model optimized for maximum expression of PDGFRA at 853
Protocol: (§1) To engineer the recipe of stage 3 of differentiation, cells were first cultured in stage 1 and stage 2 media (described in detail in US Publications 2022/0315891 and 2024/0043798). Then, 48 or 96 different combinations of effectors generated using HD-DoE compression through D-optimality were robotically prepared. The effector combinations were prepared in a basal media and were subsequently added to the cells, which were then allowed to differentiate. 3 days later RNA extraction was performed, and gene expression was obtained using quantitative PCR analysis. The data was normalized and modeled using partial least squares regression analysis to the effector design, resulting in the generation of gene-specific models, which after model tuning for maximal predictive power, provided explanation of the effectors ability to control the expression of individual genes, combinatorically, and individually. Solutions within the tested space were then further explored to address desirability.
(§2) In one 8-factor modeling experiment, the individual and combinatorial effect of CHIR99021 (a WNT pathway agonist), AGN193109 (an RA pathway antagonist), FGF-2 (FGFR pathway agonist), Purmorphamine (a SHH pathway agonist), TTNPB (an RA pathway agonist), IGF-1 (an IGF-1 pathway agonist), MHY1485 (a mTOR pathway agonist), and Sc79 (an Akt pathway agonist), on further differentiation of cells were tested. […] Sc79 had the highest negative impact on its expression with factor contribution of 30.
The highest positive contribution was from Purmorphamine with factor contribution of 21 and IGF-1 with factor contribution of 11. MHY1485 and AGN193109 had the highest negative impact with factor contribution of 21 and 23, respectively (FIG. 2). […] When the model was optimized, expression levels were observed of NKX2-2 at 1200, OLIG1 at 550, OLIG2 at 1000, PDGFRA at 500, SOX8 at 70, and SOX10 at 35 (FIG. 4).

SOX10 expression = experiment: HD-DoE 8-factor modeling experiment (stage 3), model optimized for maximum expression of SOX10, qPCR gene expression; settings: for effect on expression of SOX10 (dynamic profile): model optimized for maximal SOX10 expression, FIG. 4; for factor contribution, positive regulatory effect on SOX10 expression: model optimized for maximum expression of SOX10 at 40
Protocol: as §1, §2

SOX8 expression = experiment: HD-DoE 8-factor modeling experiment (stage 3), model optimized for maximal expression of SOX8; settings: FIG. 3
Protocol: as §1
In one 8-factor modeling experiment, the individual and combinatorial effect of CHIR99021 (a WNT pathway agonist), AGN193109 (an RA pathway antagonist), FGF-2 (FGFR pathway agonist), Purmorphamine (a SHH pathway agonist), TTNPB (an RA pathway agonist), IGF-1 (an IGF-1 pathway agonist), MHY1485 (a mTOR pathway agonist), and Sc79 (an Akt pathway agonist), on further differentiation of cells were tested. […]

[1] = tested on: OLIG1 and NKX2-2 expression; experiment: HD-DoE 12-factor modeling experiment (stage 3), models optimized for maximal expression of OLIG1 and NKX2-2 simultaneously; settings: FIG. 5; for factor contribution, positive effect on upregulation of OLIG1 and NKX2-2: models optimized for OLIG1 (192) and NKX2-2 (486) simultaneously
Protocol: as §1
Another 12-factor modeling experiment was performed to study the effect of additional factors on expression level of target genes at stage 3. In this experiment, Activin A, Linoleic acid (a polyunsaturated fatty acid), DBZ (GSI-XX) (a NOTCH pathway inhibitor), ZM336372 (a c-Raf inhibitor), AZD3147 (a mTOR pathway inhibitor), PDGF-AA (a PDGF pathway agonist) and MK2206 (an Akt pathway inhibitor), along with AGN193109, TTNPB, FGF2, IGF-1, and MHY1485, were tested. According to literature, proteins such as FGF-2, IGF-1, and PDGF-AA play an important role in oligodendrocyte differentiation (Goldman and Kuypers (2015) Development 142:3983-95). Models were optimized for maximal expression of OLIG1 with expression level of 192 and NKX2-2 with expression level of 486 simultaneously. […] MK2206 with factor contribution of 19 had the highest negative impact on expression of these genes. […] To confirm the impact of identified factors on a bigger scale, the expression profile of a larger group of genes defining late oligodendrocyte progenitor population (Perlman et al. (2020) Glia 68:1291-1303; Goldman and Kuypers (2015) Development 142:3983-95; van Tilborg et al. (2018) Glia 66:221-238) was investigated. At maximal expression of OLIG1 and NKX2-2, other desired genes such as CNP, IGFBP2, MYC, and MYT-1 were highly expressed, while neuronal genes, NEUROD1, NEUROG1, and NEUROG2 had expression levels less than 30.

MBP expression = experiment: HD-DoE 8-factor model (stage 4), optimized for maximum expression of MBP; settings: model optimized for MBP at 274; FIG. 6

## Cc1ccc(C2=CCC(C)(C)c3ccc(C#Cc4ccc(C(=O)O)cc4)cc32)cc1 [AGN193109]
PDGFRA expression
  factor contribution, negative impact on PDGFRA expression: 23

## Cc1c[nH]c(-c2cnc(NCCNc3ccc(C#N)cn3)nc2-c2ccc(Cl)cc2Cl)n1 [CHIR99021]
SOX10 expression
  effect on expression of SOX10 (dynamic profile): positive effect
SOX10 expression; FIG. 1
  factor contribution, positive regulatory effect on SOX10 expression: 8
PDGFRA expression
  factor contribution, positive impact on PDGFRA expression: 8

## O=[N+]([O-])c1ccc(Nc2nc(N3CCOCC3)nc(N3CCOCC3)n2)cc1 [MHY1485]
SOX8 expression
  factor contribution, positive effect on SOX8 expression: 13 and 13.2
PDGFRA expression
  factor contribution, negative impact on PDGFRA expression: 21

## NC1(c2ccc(-c3nc4ccn5c(=O)[nH]nc5c4cc3-c3ccccc3)cc2)CCC1 [MK2206]
[1]; models optimized for OLIG1 and NKX2-2 simultaneously
  factor contribution, negative impact on expression of OLIG1 and NKX2-2: 19

## c1ccc2c(Oc3nc(Nc4ccc(N5CCOCC5)cc4)c4ncn(C5CCCCC5)c4n3)cccc2c1 [Purmorphamine]
PDGFRA expression
  factor contribution, positive impact on PDGFRA expression: 21 and 20.6

## CCOC(=O)C1=C(N)Oc2ccc(Cl)cc2C1C(C#N)C(=O)OCC (centres unmarked) [Sc79]
SOX10 expression; model optimized for maximum expression of SOX10, FIG. 1
  factor contribution, negative impact on SOX10 expression: 30

## N[C@@H](Cc1cc(I)c(Oc2ccc(O)c(I)c2)c(I)c1)C(=O)O [T3]
MBP expression
  factor contribution, positive impact on MBP expression: 18.1

## C/C(=C\c1ccc(C(=O)O)cc1)c1ccc2c(c1)C(C)(C)CCC2(C)C [TTNPB]
SOX10 expression
  effect on expression of SOX10 (dynamic profile): positive effect
SOX10 expression; FIG. 1
  factor contribution, positive regulatory effect on SOX10 expression: 18
PDGFRA expression
  factor contribution, positive impact on PDGFRA expression: 0.6

## CCCCC/C=C\C/C=C\CCCCCCCC(=O)O [linoleic acid]
[1]
  factor contribution, positive effect on upregulation of OLIG1 and NKX2-2: 12

## Dibenzazepine [DBZ]
MBP expression
  factor contribution, positive impact on MBP expression: 18.1
[1]
  factor contribution, positive effect on upregulation of OLIG1 and NKX2-2: 13
[1]; listed as GSI-XX (DBZ)
  factor contribution, positive effect on upregulation of OLIG1 and NKX2-2: 13.2

## FGF-2: FGFR pathway agonist; naturally occurring ligand
SOX10 expression
  effect on expression of SOX10 (dynamic profile): positive effect
SOX10 expression; FIG. 1
  factor contribution, positive regulatory effect on SOX10 expression: 15

## IGF-1: insulin-like growth factor 1; an IGF-1 pathway agonist
SOX10 expression; dynamic profile analysis, decreased from 40 without IGF-1
  expression level of SOX10 after addition of IGF-1 to the suggested recipe: 35
SOX8 expression
  factor contribution, positive effect on SOX8 expression: 16 and 15.6
PDGFRA expression
  factor contribution, positive impact on PDGFRA expression: 11 and 11.22

## PDGF-AA: a PDGF pathway agonist; ligand of a PDGFR
[1]
  factor contribution, positive effect on upregulation of OLIG1 and NKX2-2: 21
